Assays:
HCV genotype 1b replicon = experiment: HCV replicon assay; type: cell-based; settings: Zluc (Huh-7-derived) cells, luciferase reporter, 72 hours; read-out: HCV Replicon EC50
Protocol: Huh-7-derived cell line (Zluc) that harbors an HCV genotype 1b replicon and a luciferase reporter gene was grown in Dulbecco's Modified Eagle Medium (DMEM) supplemented with 10% fetal bovine serum, 2 mM GlutaMAX, 1% MEM nonessential amino acids, 100 IU/mL penicillin, 100 μg/mL streptomycin, and 0.5 mg/mL Geneticin® (G418). For dose response testing the cells were seeded in 96-well plates at 7.5×10^3 cells per well in a volume of 50 μL, and incubated at 37° C./5% CO2. Drug solutions were made up freshly in Huh-7 media as 2× stocks. Ten additional 5-fold dilutions were prepared from these stocks in DMEM without G418. At least three hours after Zluc cells were seeded, drug treatment was initiated by adding 50 μL of drug dilutions to the plates in duplicate. Final concentrations of drug ranged from 100 μM to […]. Cells were then incubated at 37° C./5% CO2. Alternatively, compounds were tested at two concentrations (1 μM and 10 μM). […] For this, media was removed from the plates via gentle tapping. Fifty microliters of ONE-glo luciferase assay reagent was added to each well. The plates were shaken gently for 3 min at room temperature and luminescence was measured on a Victor^3 V 1420 multilabel counter (Perkin Elmer) with a 1 second read time using a 700 nm cut-off filter. The EC50 values were calculated from dose response curves from the resulting best-fit equations determined by Microsoft Excel and XLfit 4.1 software. When screening at two fixed concentrations, the results were expressed as % inhibition at 1 μM and 10 μM.

Zluc cells = experiment: Cytotoxicity evaluation in Zluc cells (CellTiter-Blue); type: cell-based, human; settings: read-out: HCV Replicon CC50
Protocol: For cytotoxicity evaluation, Zluc cells were treated with compound as described herein, and cell viability was monitored using the CellTiter-Blue Cell Viability Assay (Promega) by adding 20 μL of the assay solution to each well. The plates were then incubated at 37° C./5% CO2 for at least 3 hours.

Huh-7 cells = experiment: Release of active metabolite in Huh-7 cells; type: in vitro ADME, human
Protocol: Huh-7 cells were plated in 1 mL culture medium (DMEM, containing glucose, L-glutamine and sodium pyruvate, 10% FBS, 100 IU/mL penicillin, 100 μg/mL streptomycin, 2 mM GlutaMAX, 1% MEM non-essential amino acids) at the concentration 0.8, 0.4 and 0.2 million cells per well on 6 well plates for 24, 48 and 72 hr treatment, respectively. Plated cells were incubated overnight at 37° C. in an incubator.
The following morning test compound was diluted to 20 μM from a stock solution in DMSO in fresh culture medium pre-warmed to 37° C. and 1 mL of the solution/well was added to cells. A final medium volume per well was 2.0 mL, test compound concentration in well was 10 μM and final DMSO concentration was 0.1%.
After 24, 48 or 72 hr, the medium was carefully removed and cell monolayers were washed twice with 2 mL ice-cold PBS per well. Following the last wash, all PBS was carefully removed and 1.0 mL of extraction solution (ice-cold 70% methanol) added. The plate was tightly covered with Parafilm, plastic plate cover and Parafilm again and an intracellular content was extracted at −20° C. for 24 hr.
After 24 hr the extracts were transferred into polypropylene microfuge tubes and dry on a refrigerated centrivap concentrator. Dry residues were reconstituted in 250 μL of HPLC-grade water and centrifuged at 16,000×g for 10 min. Aliquots (100 μL each) of the supernatants were transferred into a 96 well plate and internal standard (4 ng/mL final concentration) was added as the internal standard (IS) for LC-MS/MS analysis.

[1] = Plasma nucleoside and liver triphosphate PK after single oral dose (Example 4); type: in vivo, CD-1 mice; settings: at 1 μmol/kg, single oral dose 10 mg/kg in PEG 200
Protocol: Plasma samples were analyzed for nucleoside by LC-MS/MS. The internal standard (IS) was either 2′-MeG-D3 or tiapride. For protein precipitation and extraction, each plasma sample (50 μL) was treated with 500 μL of 0.2% formic acid in acetonitrile and 20 μL of the internal standard working solution. After vortexing and centrifugation, 500 μL of the sample extracts were transferred to a new plate, dried under N2 at ˜28° C. and reconstituted with 75 μL of 0.2% FA in water. The extracts were chromatographed on an Aquasil C18 column using a gradient system of 0.2% formic acid in water and acetonitrile. The analytes were detected and quantified by tandem mass spectrometry in positive ion mode on an MDS Sciex API5000 equipped with a Turbo Ionspray® interface. The calibration range was 0.500 (LLOQ) to 200 ng/mL in mouse plasma.
(§1) Internal standard solution was added to the homogenate followed by neutralization with 20% ammonium hydroxide solution and addition of 500 μL 1% formic acid. The tissue samples were extracted by weak anion exchange solid phase extraction (SPE). Post extraction, the eluates were evaporated under nitrogen, followed by reconstitution before injection onto the LC-MS/MS system.

[2] = Liver triphosphate and plasma prodrug and nucleoside PK after single oral dose (Example 5); type: in vivo, Cynomolgus monkeys; settings: oral 10 mg/kg
Protocol: For each compound, a single oral dose at 10 mg/kg in PEG 200 (dose volume 3 mL/kg) was administered to cynomolgus monkeys. Untreated animals were used for the collection of control liver. Plasma samples were collected at 0.5, 1, 2, 4, 6, 8, 12 and 24 hours for compound 37, diastereomer 2.
Plasma samples were analyzed for the prodrug and nucleoside by LC-MS/MS. For protein precipitation and extraction, each plasma sample (50 μL) was treated with 500 μL of 0.2% formic acid in acetonitrile and 20 μL of an appropriate internal standard working solution. After vortexing and centrifugation, 500 μL of the sample extracts were transferred to a new plate, dried under N2 at ˜28° C. and reconstituted with 75 μL of 0.2% FA in water. The extracts were chromatographed on an Aquasil C18 column using a gradient system of 0.2% formic acid in water and acetonitrile. The analytes were detected and quantified by tandem mass spectrometry in positive ion mode on an MDS Sciex API4000 equipped with a Turbo Ionspray® interface.
as §1, with “Liver samples were analyzed for the relevant nucleoside triphosphate by LC-MS/MS. […] Appropriate internal” for “Internal”

cathepsin A (CatA) = biological target: T1, cathepsin A (CatA) (Homo sapiens, UniProt P10619); experiment: Hydrolysis of prodrugs by Cathepsin A; type: in vitro ADME
T1 sequence (P10619 29-326 limits assumed): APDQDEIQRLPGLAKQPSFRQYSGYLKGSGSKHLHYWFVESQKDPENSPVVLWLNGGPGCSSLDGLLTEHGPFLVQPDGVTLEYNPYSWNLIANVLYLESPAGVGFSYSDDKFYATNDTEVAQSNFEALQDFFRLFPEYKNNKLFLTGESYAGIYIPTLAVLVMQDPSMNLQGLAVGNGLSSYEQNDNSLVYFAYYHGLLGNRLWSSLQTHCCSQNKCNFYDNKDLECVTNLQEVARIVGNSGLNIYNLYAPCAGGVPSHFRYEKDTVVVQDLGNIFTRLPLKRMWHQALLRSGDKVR
T1 sequence (P10619 327-480 limits assumed): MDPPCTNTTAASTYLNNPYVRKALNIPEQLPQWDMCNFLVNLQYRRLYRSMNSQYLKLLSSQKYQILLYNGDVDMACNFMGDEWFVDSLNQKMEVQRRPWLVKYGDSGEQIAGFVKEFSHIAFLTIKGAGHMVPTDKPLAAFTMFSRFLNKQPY
Protocol: CatA, cathepsin L (CatL) and CES1 were purchased from R & D Systems (Minneapolis, Minn.). Prior to the enzymatic hydrolysis reactions, CatA was activated according to the manufacturer's instruction. Briefly, CatA (0.05 μg/μL) was incubated with CatL (0.005 μg/μL) for 30 min at 37° C. in 25 mM MES pH 6.0 containing 5 mM DTT. The reaction was stopped by addition of the CatL specific inhibitor E64 (10 μM).
The CatA assay was performed at 37° C. The reaction mixture contained 25 mM MES buffer pH 6.0, 100 mM NaCl, 4 mM DTT and 100 μM of the compound. The reaction was started by addition of the activated CatA enzyme to a final concentration of 0.005 μg/μL. […] Reactions were stopped by mixing the sample with an equal volume of ice-cold methanol, and were loaded on a HPLC for analysis.

[3] = biological target: T2, carboxylesterase 1 (CES1) (Homo sapiens, UniProt P23141); experiment: Hydrolysis of prodrugs by Carboxylesterase 1; type: in vitro ADME; settings: for CES1 hydrolysis: 100 μM compound, 37° C., pH 7.5
T2 construct: purchased R & D Systems (Minneapolis, Minn.)
T2 sequence (P23141 18-567): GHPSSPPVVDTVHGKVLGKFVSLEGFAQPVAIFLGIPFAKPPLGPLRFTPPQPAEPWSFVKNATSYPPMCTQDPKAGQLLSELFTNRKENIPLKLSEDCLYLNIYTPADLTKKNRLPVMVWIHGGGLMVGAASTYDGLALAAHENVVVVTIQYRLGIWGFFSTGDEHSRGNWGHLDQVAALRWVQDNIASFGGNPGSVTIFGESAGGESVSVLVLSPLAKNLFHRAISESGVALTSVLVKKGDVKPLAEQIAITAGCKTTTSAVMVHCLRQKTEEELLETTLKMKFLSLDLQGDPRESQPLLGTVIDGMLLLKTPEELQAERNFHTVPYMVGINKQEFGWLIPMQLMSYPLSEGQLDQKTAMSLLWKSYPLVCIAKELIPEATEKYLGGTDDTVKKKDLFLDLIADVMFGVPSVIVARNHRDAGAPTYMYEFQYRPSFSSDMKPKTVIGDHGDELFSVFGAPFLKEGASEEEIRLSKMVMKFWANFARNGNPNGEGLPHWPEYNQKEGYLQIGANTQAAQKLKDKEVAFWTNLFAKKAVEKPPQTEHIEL
Protocol: CES1 assay was performed at 37° C. in the reaction mixture containing 50 mM Tris/HCl buffer pH 7.5 and 100 μM of the compound. Reaction was started by addition of the CES1 to the final concentration 0.01 μg/mL. 100 μL aliquots were taken after 0.5 min, 3 hrs and 21 hrs of the incubation and the reaction was stopped by mixing with 100 μl of the ice-cold methanol prior to HPLC analysis.
Samples were analyzed by HPLC using 5 μC-18, 4.6×250 mm Phenomenex® Columbus column (Phenomenex USA, Calif.). The mobile phase consisted of buffer A (25 mM potassium phosphate with 5 mM tetrabutylammonium dihydrogen phosphate pH 6.3) and buffer B (100% methanol).

In the case of `CC(C)OC(=O)[C@H](C)NP(=O)(OC[C@H]1O[C@@H](n2ccc(=O)[nH]c2=O)[C@](C)(Cl)[C@@H]1O)Oc1ccccc1` (single isomer, unassigned; diastereomer 1) [40ii Diastereomer 1], the EC50 (HCV genotype 1b replicon) is reported as < 0.25 µM, the CC50 (Zluc cells) is reported as > 50 µM and the “Huh-7 TP AUC” value (Huh-7 cells; 10 μM test compound) is reported as 4380 pmol.hr/mill cells. The “Huh-7 TP Cmax” value (Huh-7 cells; 10 μM test compound) was 123 pmol/mill cells, the “Huh-7 TP (24 hr)” value (Huh-7 cells; 10 μM test compound, 24 hr) was 25 and the “Huh-7 TP (48 hr)” value (Huh-7 cells; 10 μM test compound, 48 hr) was 96. For the same compound, the “Huh-7 TP (72 hr)” value (Huh-7 cells; 10 μM test compound, 72 hr) was 123, the “Ms Plasma nucleoside AUC” value [1] was 0.00349 M·s and the Cmax ([1]; read-out: Ms Plasma nucleoside Cmax) was 86 nM.
For `C[C@@H](NP(=O)(OC[C@H]1O[C@@H](n2ccc(=O)[nH]c2=O)[C@](C)(Cl)[C@@H]1O)Oc1ccccc1)C(=O)OCc1ccccc1` (single isomer, unassigned) [205i Diastereomer 1], the CC50 (Zluc cells) was > 50 µM.
With `C[C@@H](NP(=O)(OC[C@H]1O[C@@H](n2ccc(=O)[nH]c2=O)[C@](C)(Cl)[C@@H]1O)Oc1ccccc1)C(=O)OCc1ccccc1` (single isomer, unassigned; diastereomer 2) [205i Diastereomer 2] the EC50 (HCV genotype 1b replicon) was 0.25 to 1 µM, the CC50 (Zluc cells) was > 50 µM and the “Ms Plasma nucleoside AUC” value [1] was 0.00612 M·s.
In the case of `CC(C)OP1(=O)OC[C@H]2O[C@@H](n3ccc(=O)[nH]c3=O)[C@](C)(Cl)[C@@H]2O1` (single isomer, unassigned; diastereomer 2) [37 Diastereomer 2], the “Nucleoside triphosphate in Liver C6” value ([2]; 6 hours post dose, normalized to 1 μmol/kg dose) is reported as 1500 pmol/g, the “Nucleoside triphosphate in Liver Tmax” value [2] is reported as 12 h and the “Plasma nucleoside Tmax” value [2] is reported as 4 h. The “Plasma prodrug Tmax” value [2] was 4 h, the “Nucleoside triphosphate in Liver AUC0-24” value ([2]; normalized to 1 μmol/kg dose) was 29000 pmol·h/g and the “Nucleoside triphosphate in Liver Cmax” value ([2]; normalized to 1 μmol/kg dose) was 1700 pmol/g. For the same compound, the “Plasma nucleoside AUC0-24” value ([2]; normalized to 1 μmol/kg dose) was 0.65 µM·h, the “Plasma prodrug AUC0-24” value ([2]; normalized to 1 μmol/kg dose) was 4 µM·h and the Cmax ([2]; normalized to 1 μmol/kg dose, read-out: Plasma nucleoside Cmax) was 51 nM. For the same compound, the Cmax ([2]; normalized to 1 μmol/kg dose, read-out: Plasma prodrug Cmax) was 840 nM.
With `CCCCOC(=O)[C@@H](C)NP(=O)(OC[C@H]1O[C@@H](n2ccc(=O)[nH]c2=O)[C@](C)(Cl)[C@@H]1O)Oc1ccccc1` (single isomer, unassigned; diastereomer 2) [202i Diastereomer 2] the EC50 (HCV genotype 1b replicon) was 0.25 to 1 µM, the CC50 (Zluc cells) was > 50 µM and the “Ms Plasma nucleoside AUC” value [1] was 0.00612 M·s.
For `CC(C)OC(=O)[C@H](C)N[P@](=O)(OC[C@H]1O[C@@H](n2ccc(=O)[nH]c2=O)[C@](C)(F)[C@@H]1O)Oc1ccccc1` (single isomer, unassigned) [GS-7977, reference compound], the “Huh-7 AUC0-72” value (Huh-7 cells; Table 7) was 63555 pmol*hr/10^6cells, the “Hydrolysis by CatA” value (cathepsin A (CatA)) was “hydrolyzed” and the CatA hydrolysis (cathepsin A (CatA); @ 18 h, 100 μM compound, 37° C., pH 6.0) was 100% @. The “CatA cleavage efficiency relative to the RP diastereoisomer” value (cathepsin A (CatA); GS-7977 (SP) versus RP diastereoisomer) was 10 times, the “Hydrolysis by CES1” value [3] was “hydrolyzed” and the CES1 hydrolysis ([3]; 3 h) was 12%/3 h;. For the same compound, the CES1 hydrolysis ([3]; 21 h) was 15%/21 h.
With `CCCCOC(=O)[C@@H](C)NP(=O)(OC[C@H]1O[C@@H](n2ccc(=O)[nH]c2=O)[C@](C)(Cl)[C@@H]1O)Oc1ccccc1` (single isomer, unassigned) [202i Diastereomer 1] the CC50 (Zluc cells) was > 50 µM.

Reference: patent US10717758B2, “D-amino acid compounds for liver disease” (priority 2012, dated 2020)
